Measurements taken from article PMC4514675, “Novel Apo E-Derived ABCA1 Agonist Peptide (CS-6253) Promotes Reverse Cholesterol Transport and Induces Formation of preβ-1 HDL In Vitro” (PLoS ONE, 2015).

Columns and labels:
[1] = tested on: BHK-ABCA1 plasma membrane microdomains; experiment: Cholesterol and phospholipid desorption from raft and non-raft domains of BHK-ABCA1 cells; format: cell-based, hamster; conditions: 45 min
Procedure: Lipid labeling was performed as described previously with minor modifications. Briefly, BHK-cells were labeled with either 5 μCi/ml ^3[H] choline (Perkin-Elmer) for 48 h or 3 μCi/ml ^3[H] cholesterol (Perkin-Elmer) for 24 h, and then stimulated as described above. […] For each fraction, lipids were extracted by Folch and ^3[H]choline-labeled PtdCho, and SM were separated by TLC in the solvent system chloroform-methanol-water (65:35:4; v/v/v), and counted.
Supplementary file pone.0131997.s008.tif: S7 Fig CS-6253 desorbs phospholipids from raft and nonraft domains. […] After lipid extraction, ^3[H]cholesterol in each fraction was assessed for radioactivity. Radioactivity appearing in fractions corresponding to raft (1–5) and nonraft (6–10) material was pooled, and desorption of ^3[H]cholesterol and ^3[H]choline, from raft versus nonraft in the presence of apo A-I or CS-6253 was expressed as a percentage of control (100%, in the absence of acceptor) (S4 to S7 inset). […]
Sucrose density gradient fractionation was performed by ultracentrifugation (1,2). […] Ten fractions of 1ml were collected from top to bottom and analyzed for radioactivity, and lipid content ^3[H]-FC and ^3[H]-choline. […]

[2] = tested on: BHK-ABCA1 plasma membrane microdomains; experiment: Desorption of phosphatidylcholine and sphingomyelin species from raft and non-raft domains of BHK-ABCA1 cells; format: cell-based, hamster; conditions: 0.96 μM, 12 h
Procedure: Lipid labeling was performed as described previously with minor modifications. Briefly, BHK-cells were labeled with either 5 μCi/ml ^3[H] choline (Perkin-Elmer) for 48 h or 3 μCi/ml ^3[H] cholesterol (Perkin-Elmer) for 24 h, and then stimulated as described above. Cells were subsequently incubated with lipid-free apoA-I or CS-6253 at (0.96 μM) for 12h, and fractionated by sucrose gradient in the presence of 0.2% Triton X-100. For each fraction, lipids were extracted by Folch and ^3[H]choline-labeled PtdCho, and SM were separated by TLC in the solvent system chloroform-methanol-water (65:35:4; v/v/v), and counted.
Fig 4 Apo A-I (left panels) and CS-6253 (right panels) desorb phospholipids species from raft and nonraft domains. […] After lipid extraction by Folch, ^3[H]phosphatidyl choline (^3[H]PC) (A and B), or ^3[H]sphingomyelin (^3[H]SM) (C and D) in each fraction was assessed for radioactivity. Radioactivity appearing in fractions corresponding to raft (1–5) and nonraft (6–10) material was pooled, and desorption of ^3[H]PC (A and B inset) and ^3[H]SM (C and D inset), from raft versus nonraft in the presence of apo A-I or CS-6253 was expressed as a percentage of control (100%, in the absence of acceptor). ^3[H]PC and ^3[H]SM distributions in sucrose gradient fractions after 12h incubation with apo A-I or CS-6253 were assessed by TLC respectively. […]

[3] = biological target: ABCA1 (Homo sapiens, UniProt O95477); experiment: ABCA1-mediated phospholipid efflux from BHK-ABCA1 cells; format: cell-based; design: expressed in transfected cells; host or cells: BHK cells, stably transfected, induced with 10 nM mifepristone; conditions: mean of triplicates ± SD, n = 3
Procedure: Supplementary file pone.0131997.s003.tif: S2 Fig Phospholipid efflux from BHK cells expressing ABCA1 to increasing concentrations of lipid free CS-6253 and apo A-I. Baby hamster kidney (BHK) cells were labeled with ^3[H]-choline. ABCA1 expression was induced by treating BHK cells with 10 nM mifepristone. Cells were then changed into fresh DMEM medium [no apolipoprotein A-I (apoA-I)] and incubated with apoA-I or CS-6253 (0.96 uM). Medium was collected after 2 h. […] Results represent the mean of triplicates ± SD, n = 3. (TIF) Click here for additional data file.
Cells were seeded (50×10^3 cells) in 24 well plates containing DMEM plus 10% FBS with 3 μCi/ml ^3H-choline chloride (Perkin Elmer, Norwalk, Connecticut), for 72 hours as previously reported with minor changes). Cells were then put into induction medium for 18–20 h (10 nM mifepristone). This was followed by incubation with increased molar doses of apo A-I and CS-6253 for 2 h at 37°C. Efflux medium was collected, and cellular lipids were extracted with hexane/isopropanol (3:2 v/v), while total phospholipids from the medium were extracted in chloroform /methanol (2:1 v/v). Efflux was determined as percent of total ^3[H] Phospholipids in the medium. All results were conformed at least twice. (S2 Fig.)

ABCA1, sequence (O95477 whole entry): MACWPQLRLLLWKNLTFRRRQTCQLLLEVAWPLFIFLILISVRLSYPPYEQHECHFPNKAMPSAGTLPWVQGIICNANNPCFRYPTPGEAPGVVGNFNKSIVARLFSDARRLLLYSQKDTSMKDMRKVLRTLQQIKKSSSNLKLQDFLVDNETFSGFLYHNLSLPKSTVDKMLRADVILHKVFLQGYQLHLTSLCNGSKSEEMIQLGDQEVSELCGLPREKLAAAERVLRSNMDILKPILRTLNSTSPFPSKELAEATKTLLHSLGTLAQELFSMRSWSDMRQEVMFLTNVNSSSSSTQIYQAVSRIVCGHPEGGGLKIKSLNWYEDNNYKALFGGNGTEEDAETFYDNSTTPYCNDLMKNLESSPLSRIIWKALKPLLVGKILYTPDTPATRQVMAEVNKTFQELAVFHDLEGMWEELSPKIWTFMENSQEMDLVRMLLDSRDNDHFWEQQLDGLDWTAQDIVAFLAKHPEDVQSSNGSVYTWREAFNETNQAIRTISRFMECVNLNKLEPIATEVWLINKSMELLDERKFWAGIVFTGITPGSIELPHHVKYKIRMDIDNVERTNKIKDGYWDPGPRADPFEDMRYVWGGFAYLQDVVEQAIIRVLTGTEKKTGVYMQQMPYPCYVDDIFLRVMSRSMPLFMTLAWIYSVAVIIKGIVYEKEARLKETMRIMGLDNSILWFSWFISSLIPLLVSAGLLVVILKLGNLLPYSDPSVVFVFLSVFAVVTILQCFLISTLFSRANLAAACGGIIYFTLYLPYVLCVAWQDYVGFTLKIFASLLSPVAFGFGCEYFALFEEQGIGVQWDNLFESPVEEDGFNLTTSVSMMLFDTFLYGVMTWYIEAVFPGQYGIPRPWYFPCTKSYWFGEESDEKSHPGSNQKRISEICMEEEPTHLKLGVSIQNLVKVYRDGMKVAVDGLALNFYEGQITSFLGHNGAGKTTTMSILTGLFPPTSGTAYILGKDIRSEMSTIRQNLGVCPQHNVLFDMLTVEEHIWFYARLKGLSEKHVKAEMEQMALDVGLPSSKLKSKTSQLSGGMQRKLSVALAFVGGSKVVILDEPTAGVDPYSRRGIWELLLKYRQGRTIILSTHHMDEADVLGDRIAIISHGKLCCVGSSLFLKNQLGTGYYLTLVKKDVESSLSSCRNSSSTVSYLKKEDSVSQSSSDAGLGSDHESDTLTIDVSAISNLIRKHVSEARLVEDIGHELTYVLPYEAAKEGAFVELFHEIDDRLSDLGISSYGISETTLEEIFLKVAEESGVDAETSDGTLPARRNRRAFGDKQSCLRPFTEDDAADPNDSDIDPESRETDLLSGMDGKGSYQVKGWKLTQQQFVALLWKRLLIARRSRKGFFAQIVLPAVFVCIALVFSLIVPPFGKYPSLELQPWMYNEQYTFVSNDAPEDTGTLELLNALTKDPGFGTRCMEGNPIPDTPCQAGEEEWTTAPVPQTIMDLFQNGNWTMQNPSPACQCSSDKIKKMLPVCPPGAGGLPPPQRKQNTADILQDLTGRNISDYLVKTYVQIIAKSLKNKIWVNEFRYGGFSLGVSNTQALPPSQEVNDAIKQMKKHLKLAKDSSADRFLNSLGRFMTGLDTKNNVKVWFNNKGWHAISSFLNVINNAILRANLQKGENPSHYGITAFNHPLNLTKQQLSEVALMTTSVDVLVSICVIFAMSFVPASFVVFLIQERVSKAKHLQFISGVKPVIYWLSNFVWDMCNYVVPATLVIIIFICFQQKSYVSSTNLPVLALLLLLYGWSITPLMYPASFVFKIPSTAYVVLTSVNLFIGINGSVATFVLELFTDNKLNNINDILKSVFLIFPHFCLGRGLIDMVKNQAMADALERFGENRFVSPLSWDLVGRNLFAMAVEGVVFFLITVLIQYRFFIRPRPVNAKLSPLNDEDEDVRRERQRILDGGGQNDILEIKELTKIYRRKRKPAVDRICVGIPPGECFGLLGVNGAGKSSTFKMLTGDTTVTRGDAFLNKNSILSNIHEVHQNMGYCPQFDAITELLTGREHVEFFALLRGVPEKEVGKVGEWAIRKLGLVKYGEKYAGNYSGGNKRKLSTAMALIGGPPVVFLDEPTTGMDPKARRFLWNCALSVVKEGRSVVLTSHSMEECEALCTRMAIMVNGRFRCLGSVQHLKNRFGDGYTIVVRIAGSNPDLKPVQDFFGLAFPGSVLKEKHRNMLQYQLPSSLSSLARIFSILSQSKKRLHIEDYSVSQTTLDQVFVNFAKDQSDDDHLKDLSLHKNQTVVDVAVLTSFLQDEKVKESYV

Substance: apolipoprotein A-I [apo A-I]
- cholesterol desorption from rafts and non-rafts [1]: 25%
- PC desorption in PM microdomains (in words) [2]: less PC desorption in PM microdomains than CS-6253
- SM desorption [2]: desorbed from both non-raft and raft domains
- Km ([3]; 2 h): 0.14 ± 0.02 µM
- Km, phospholipid efflux ([3]; 2 h): 3.65 ± 0.49 µg/mL
- Vmax, phospholipid efflux [3]: 0.77±0.02 % efflux/2h
